# Read-outs that look alike come from different tables or passages of the source.
# Assays:
# [1] = Pharmacokinetics in male SD rats dosed PO (plasma and brain); type: in vivo, rat; conditions: male SD rats PO 5 mg/kg; for Cmax: 0.5% methylcellulose vehicle; for MRT inf: read-out: MRT0-inf; for MRT last: read-out: MRT0-last
# [2] = tested on: NCI-H1975-Luc cells; test: Intracranially implanted NCI-H1975-Luc tumor efficacy study in mice (BLI and survival); type: in vivo
# Procedure: N-(2-(2-(Dimethylamino)ethoxy)-4-methoxy-5-((4-(1-methyl-1H-indol-3-yl)pyrimidin-2-yl)amino)phenyl)acrylamide methanesulfonate (1⋅Ms; C27H30N6O3.1.06 CH3SO3H. MW=486.58, FW=588.45, purity=100%) was formulated in a vehicle of 1% polysorbate 80 in water. The complete vehicle was added to the pre-weighed compound to achieve a 5 mg/mL stock solution, suitable for treatment of the 50 mg/kg dose level. The mixture was vortexed for approximately one minute resulting in a light yellow solution with a pH value of 7. The dosing solution was prepared fresh daily.
# Female Envigo Nude mice (Hsd:Athymic Nude-Foxn1^nu) were used. They were 6-7 weeks old on Day 1 of the experiment. The animals were fed irradiated Harlan 2918.15 Rodent Diet and water ad libitum. Animals were housed in static cages with Bed-O'Cobs™ bedding inside Biobubble® Clean Rooms that provide H. E. P. A filtered air into the bubble environment at 100 complete air changes per hour. All treatments, body weight determinations, and tumor measurements were carried out in the bubble environment. The environment was controlled to a temperature range of 70±2 OF and a humidity range of 30-70%.
# NCI-H1975-Luc cells were obtained from Clovis. They were grown in RPMI 1640 medium which was modified with 1 mM Na pyruvate+2 mM L-glutamine+10 mM HEPES+2.5 g/L glucose+5 ug/mL blasticidin and supplemented with 10% non-heat-inactivated Fetal Bovine Serum (FBS) and 1% 100× Penicillin/Streptomycin/L-Glutamine (PSG). The growth environment was maintained in an incubator with a 5% CO2 atmosphere at 37° C. When expansion was complete, the cells (passage 4) were trypsinized using 0.25% trypsin-EDTA solution. Following cell detachment, the trypsin was inactivated by dilution with complete growth medium and any clumps of cells were separated by pipetting. The cells were centrifuged at 200 ref for 8 minutes at 4° C. the supernatant was aspirated, and the pellet was re-suspended in cold Dulbecco's Phosphate Buffered Saline (DPBS) by pipetting. An aliquot of the homogeneous cell suspension was diluted in a trypan blue solution and counted using a Luna automated cell counter to determine a pre-implantation cell viability. The cell suspension was centrifuged at 200 ref for 8 minutes at 4° C. The supernatant was aspirated and the cell pellet was re-suspended in cold serum-free medium to generate a final concentration of 1.00E+08 trypan-excluding cells/mL. The cell suspension was maintained on wet ice during implantation. Following implantation, an aliquot of the remaining cells was diluted with a trypan blue solution and counted to determine the post-implantation cell viability.
# Test mice were implanted intracranially on Day 0 with 1.00E+06 cells per 10 μL as per the protocol (Appendix 1). For aseptic surgical implantation, mice were injected with 0.2 mg/kg buprenorphine and anesthetized using 2% isoflurane in air. The mice were then secured in a stereotaxic frame (ASI instruments, Inc.) using non-rupture ear bars. Ocular ointment was applied to the eyes of the mice to prevent drying during surgery. A re-circulating 37° C. water heated pad was used to maintain the animal's body temperature during the implantation procedure. Once in the stereotaxic frame, the cranium was swabbed with alternating chlorhexidine solution and 70% ethanol-saturated swabs to disinfect the skin surface and prepare for the incision. A 1 cm longitudinal incision was made centrally over bregma of the cranium using a #15 BD scalpel blade. The incision was retracted using small, serrated serrefines. The thin layer of connective tissue covering the surface of the skull was removed using dry cotton swabs under light pressure. Bleeding vessels were cauterized to prevent blood loss. A 0.9 mm drill bit was then centered over bregma, moved 2 mm right lateral, 1 mm anterior to the coronal suture and lowered to score the surface of the skull using the stereotaxic electrode manipulator arm. […]
# [3] = tested on: kinase domain of the T790M double mutant; test: Inhibition of EGFR T790M double mutant kinase domain; type: biochemical; conditions: in addition to the activating mutations
# [4] = 50 mg/kg, PO, QD×14 (Days 5-18)
smiles,measurement,setting,value
"C=CC(=O)Nc1cc(Nc2nccc(-c3cn(C)c4ccccc34)n2)c(OC)cc1OCCN(C)C [1⋅Ms, N-(2-(2-(Dimethylamino)ethoxy)-4-methoxy-5-((4-(1-methyl-1H-indol-3-yl)pyrimidin-2-yl)amino)phenyl)acrylamide methanesulfonate]",AUC0-inf,[1]; Brain,5085 ng·h/g
same,AUC0-last,[1]; Brain,5047 ng·h/g
same,AUCExtra,[1]; Brain,0.746%
same,AUMCExtra,[1]; Brain,2.57%
same,Tlast,[1]; Brain,18.0 h
same,AUCExtra,[1]; Plasma,0.593%
same,AUMCExtra,[1]; Plasma,2.42%
same,Tlast,[1]; Plasma,18.0 h
same,Kp,"[1]; rat, Brain (vs plasma), read-out: AUC Ratio",9.44
same,Tmax,"[1]; rat, Brain",2 h
same,half-life,"[1]; rat, Brain",2.01 h
same,Cmax,"[1]; rat, Brain",606 ng/g
same,MRT inf,"[1]; rat, Brain",6.07 h
same,MRT last,"[1]; rat, Brain",5.95 h
same,AUC(0-t),"[1]; rat, Plasma",535 ng·h/mL
same,Tmax,"[1]; rat, Plasma",2 h
same,half-life,"[1]; rat, Plasma",1.97 h
same,Cmax,"[1]; rat, Plasma",96.3 ng/mL
same,AUC0-inf,"[1]; rat, Plasma, read-out: AUC0-inf",538 ng·h/mL
same,MRT inf,"[1]; rat, Plasma",5.1 h
same,MRT last,"[1]; rat, Plasma",5.01 h
same,increase in lifespan,[2]; [4],15 days
same,BLI derived Day 13 % T/C,"[2]; 50 mg/kg, PO, QD×14 (Days 5-18), median BLI signal treated/control ×100, P<0.05",1%
same,% ILS (life-span increase vs. vehicle),"[2]; 50 mg/kg, PO, QD×14 (Days 5-18), methanesulfonate",107%
same,median lifespan,"[2]; 50 mg/kg, PO, QD×14 (Days 5-18), p<0.001",29.0 days
same,tolerability of treatment,"[2]; 50 mg/kg, PO, QD×14 in nude mice",well-tolerated
same,animals with complete regressions,"[2]; By Day 18, 50 mg/kg PO QD×14, CR = BLI below 2.0E+05 photons/sec",none
same,animals with partial tumor regressions,"[2]; By Day 18, 50 mg/kg PO QD×14, PR = ≥50% decrease in tumor BLI signal",100%
C=CC(=O)Nc1cc(Nc2nccc(-c3cn(C)c4ccccc34)n2)c(OC)cc1OCCN(C)C [Compound 1],% ILS (life-span increase vs. vehicle),[2]; [4],greater than 100%
same,inhibition of the kinase domain of the T790M double mutant,[3],effectively inhibits

# — patent US11052086B2, “2-anilinopyrimidine derivatives as therapeutic agents for treatment of brain cancers” (Beta Pharma, Inc., priority 2016, dated 2021)
